We go through 1 compound from ChEMBL document CHEMBL3351476, “The discovery of I-BET726 (GSK1324726A), a potent tetrahydroquinoline ApoA1 up-regulator and selective BET bromodomain inhibitor” (J Med Chem, 2014).

One series concerns the target Cytochrome P450 1A2 (Homo sapiens, UniProt P05177). As to the kind of experiment: Inhibition of CYP1A2 (unknown origin) expressed in Escherichia coli bactosomes using ethoxyresorufin as substrate after 10 mins by fluorescence assay. Type of series: ADME.
A short description of series [1]: Solubility of the compound in fasted state simulated intestinal fluid at 125 ug/ml after 16 hrs by HPLC analysis. Type of series: ADME. The following applies: simulated gi fluid, 16 h.
Series [2] can be described thus: Clearance in Cynomolgus monkey hepatocytes assessed per gram of tissue at 1 uM by LC-MS/MS analysis. Type of series: ADME, cell-based, Macaca fascicularis, Hepatocyte.
Series [3] addresses Bromodomain-containing protein 3 (Homo sapiens, UniProt Q15059). As to the kind of experiment: Displacement of biotinylated tetra-acetylated histone H4 from His6-tagged BRD3 (1 to 475 aa) (unknown origin) after 1 hr by TR-FRET assay. For orientation: In TR-FRET formats the signal depends on donor and acceptor labels being close together.
In the next series the target is Cytochrome P450 2C9 (Homo sapiens, UniProt P11712). Put plainly: Inhibition of CYP2C9 (unknown origin) expressed in Escherichia coli bactosomes using 7-methoxy-4-trifluoromethylcoumarin-3-acetic acid as substrate after 10 mins by fluorescence assay. Type of series: ADME.
Chain of Cytochrome P450 2C9 (P11712 whole entry): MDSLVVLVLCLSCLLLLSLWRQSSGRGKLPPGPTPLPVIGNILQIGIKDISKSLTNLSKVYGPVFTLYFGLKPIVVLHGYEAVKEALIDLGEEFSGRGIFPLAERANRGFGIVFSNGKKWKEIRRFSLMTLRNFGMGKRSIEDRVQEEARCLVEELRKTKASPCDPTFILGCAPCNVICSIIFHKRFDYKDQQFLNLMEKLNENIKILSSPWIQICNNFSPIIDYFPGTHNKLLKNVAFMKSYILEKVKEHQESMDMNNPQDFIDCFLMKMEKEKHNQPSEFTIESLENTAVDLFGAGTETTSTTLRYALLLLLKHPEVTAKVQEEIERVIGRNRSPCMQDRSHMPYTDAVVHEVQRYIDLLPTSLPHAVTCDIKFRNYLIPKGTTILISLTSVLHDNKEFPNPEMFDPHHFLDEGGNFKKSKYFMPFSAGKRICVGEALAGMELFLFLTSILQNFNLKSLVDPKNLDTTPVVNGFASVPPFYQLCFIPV
A further series deals with PBMC. Put plainly: Inhibition of LPS-induced IL6 production in human PBMC after 18 to 24 hrs by immunoassay. In kind it is functional, cell-based.
The target in series [4] is T1, Cytochrome P450 3A4 (Homo sapiens, UniProt P08684). As to the kind of experiment: Inhibition of human recombinant CYP3A4 expressed in Escherichia coli bactosomes using 7-benzloxyquinolone as substrate after 10 mins by fluorescence assay. Type of series: ADME.
T1 sequence (P08684 whole entry, the tested form may be a part): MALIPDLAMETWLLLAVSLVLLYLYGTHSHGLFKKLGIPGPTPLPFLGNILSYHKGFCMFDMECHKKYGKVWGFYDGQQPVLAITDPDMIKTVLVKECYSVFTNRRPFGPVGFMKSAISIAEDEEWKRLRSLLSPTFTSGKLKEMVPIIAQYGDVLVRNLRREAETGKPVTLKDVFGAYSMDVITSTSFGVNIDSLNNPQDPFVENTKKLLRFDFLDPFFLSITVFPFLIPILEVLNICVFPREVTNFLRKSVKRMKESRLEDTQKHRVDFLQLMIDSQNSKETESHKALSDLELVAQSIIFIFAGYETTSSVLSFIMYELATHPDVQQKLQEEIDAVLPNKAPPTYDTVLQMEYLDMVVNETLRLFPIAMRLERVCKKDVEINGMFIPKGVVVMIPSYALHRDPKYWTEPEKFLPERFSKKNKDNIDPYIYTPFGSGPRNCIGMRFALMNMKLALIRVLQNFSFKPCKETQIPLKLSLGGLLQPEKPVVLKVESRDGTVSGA
In series [5] the target is Bromodomain-containing protein 4 (Homo sapiens, UniProt O60885). As to the kind of experiment: Displacement of biotinylated tetra-acetylated histone H4 from His6-tagged BRD4 (1 to 477 aa) (unknown origin) after 1 hr by TR-FRET assay.
A further series concerns Blood. Put plainly: Inhibition of LPS-induced IL6 production in human whole blood after 24 hrs by immunoassay. In kind it is functional, tissue-based.
In series [6] the test system is Hepatocyte. Put plainly: Clearance in human hepatocytes assessed per gram of tissue at 1 uM by LC-MS/MS analysis. Type of series: ADME, cell-based.
The nature of series [7]: Clearance in dog hepatocytes assessed per gram of tissue at 1 uM by LC-MS/MS analysis. In kind it is ADME, cell-based, Canis lupus familiaris, Hepatocyte.
The subject of another series is HepG2. As to the kind of experiment: Upregulation of ApoA1 in human HepG2 cells after 16 hrs by luciferase reporter assay relative to control. Type of series: functional. (Reporter assays use an easily measured gene product as a stand-in for the process of interest.)
Series [8] concerns Hepatocyte. Put plainly: Clearance in rat hepatocytes assessed per gram of tissue at 1 uM by LC-MS/MS analysis. In kind it is ADME, cell-based.
For a further series, the target named is Cytochrome P450 2C19 (Homo sapiens, UniProt P33261). As to the kind of experiment: Inhibition of CYP2C19 (unknown origin) expressed in Escherichia coli bactosomes using 3-butyryl-7-methoxycoumarin as substrate after 10 mins by fluorescence assay. In kind it is ADME.
Chain of Cytochrome P450 2C19 (P33261 whole entry): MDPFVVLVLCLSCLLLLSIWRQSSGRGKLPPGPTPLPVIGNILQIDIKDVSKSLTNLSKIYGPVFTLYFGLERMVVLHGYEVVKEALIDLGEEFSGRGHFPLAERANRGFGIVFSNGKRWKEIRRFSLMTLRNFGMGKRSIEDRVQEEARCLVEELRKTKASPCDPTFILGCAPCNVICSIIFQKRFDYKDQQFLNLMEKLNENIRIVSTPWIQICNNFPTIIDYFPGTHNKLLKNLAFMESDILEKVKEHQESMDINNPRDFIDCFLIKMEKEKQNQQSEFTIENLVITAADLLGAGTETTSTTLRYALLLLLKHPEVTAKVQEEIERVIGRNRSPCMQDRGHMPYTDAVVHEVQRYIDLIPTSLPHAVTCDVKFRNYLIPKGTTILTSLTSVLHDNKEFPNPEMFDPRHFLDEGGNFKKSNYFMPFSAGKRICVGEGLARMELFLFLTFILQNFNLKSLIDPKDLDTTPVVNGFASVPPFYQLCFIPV
The target in another series is Cytochrome P450 2D6 (Homo sapiens, UniProt P10635). Put plainly: Inhibition of recombinant human CYP2D6 expressed in Escherichia coli bactosomes using 4-methylaminomethyl-7-methoyxycoumarin as substrate after 10 mins by fluorescence assay. Type of series: ADME.
Chain of Cytochrome P450 2D6 (P10635 whole entry): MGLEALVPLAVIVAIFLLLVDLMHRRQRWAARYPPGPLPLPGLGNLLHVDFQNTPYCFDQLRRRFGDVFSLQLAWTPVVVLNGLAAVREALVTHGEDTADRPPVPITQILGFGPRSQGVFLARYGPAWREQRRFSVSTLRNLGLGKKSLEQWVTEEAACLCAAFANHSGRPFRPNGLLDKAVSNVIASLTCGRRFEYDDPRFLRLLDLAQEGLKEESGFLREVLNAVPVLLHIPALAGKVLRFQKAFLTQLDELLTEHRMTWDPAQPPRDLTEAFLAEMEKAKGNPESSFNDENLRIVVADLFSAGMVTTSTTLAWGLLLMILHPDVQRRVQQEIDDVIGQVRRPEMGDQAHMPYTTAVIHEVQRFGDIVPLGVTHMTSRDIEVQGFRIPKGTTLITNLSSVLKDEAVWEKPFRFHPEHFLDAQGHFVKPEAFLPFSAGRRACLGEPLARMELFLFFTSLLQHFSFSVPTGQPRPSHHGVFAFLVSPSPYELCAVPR
Series [9] concerns the target T1, Cytochrome P450 3A4. As to the kind of experiment: Inhibition of human recombinant CYP3A4 expressed in Escherichia coli bactosomes using diethoxyfluorescein as substrate after 10 mins by fluorescence assay. In kind it is ADME.
The target of series [10] is Bromodomain-containing protein 2 (Homo sapiens, UniProt P25440). As to the kind of experiment: Displacement of biotinylated tetra-acetylated histone H4 from His6-tagged BRD2 (1 to 473 aa) (unknown origin) after 1 hr by TR-FRET assay.
Chain of Bromodomain-containing protein 2 (P25440 whole entry, the tested form may be a part): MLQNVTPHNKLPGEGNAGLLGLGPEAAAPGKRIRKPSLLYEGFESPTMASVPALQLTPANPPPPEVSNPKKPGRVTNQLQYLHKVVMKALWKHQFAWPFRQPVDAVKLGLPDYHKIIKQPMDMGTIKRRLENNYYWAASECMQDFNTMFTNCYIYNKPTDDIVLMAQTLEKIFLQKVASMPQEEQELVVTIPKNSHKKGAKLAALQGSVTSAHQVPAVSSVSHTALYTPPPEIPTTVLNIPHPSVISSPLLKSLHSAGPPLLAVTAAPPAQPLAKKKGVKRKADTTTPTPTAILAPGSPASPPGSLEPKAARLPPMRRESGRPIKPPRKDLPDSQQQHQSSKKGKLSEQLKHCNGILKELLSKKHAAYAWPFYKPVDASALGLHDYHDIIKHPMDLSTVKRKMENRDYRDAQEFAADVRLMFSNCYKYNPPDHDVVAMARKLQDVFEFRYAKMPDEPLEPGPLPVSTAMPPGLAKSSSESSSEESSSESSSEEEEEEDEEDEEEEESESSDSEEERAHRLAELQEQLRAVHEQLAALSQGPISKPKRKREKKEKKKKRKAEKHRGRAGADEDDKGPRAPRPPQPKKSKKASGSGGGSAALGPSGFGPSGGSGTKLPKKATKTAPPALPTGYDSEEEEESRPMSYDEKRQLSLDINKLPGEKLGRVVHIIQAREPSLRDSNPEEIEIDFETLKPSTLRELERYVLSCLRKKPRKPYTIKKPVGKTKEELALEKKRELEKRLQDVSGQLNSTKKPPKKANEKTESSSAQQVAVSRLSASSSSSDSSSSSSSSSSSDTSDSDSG

≈ marks a conversion by molar mass, not a printed value. Some results are limits rather than exact numbers.

Chain of Cytochrome P450 1A2 (P05177 whole entry): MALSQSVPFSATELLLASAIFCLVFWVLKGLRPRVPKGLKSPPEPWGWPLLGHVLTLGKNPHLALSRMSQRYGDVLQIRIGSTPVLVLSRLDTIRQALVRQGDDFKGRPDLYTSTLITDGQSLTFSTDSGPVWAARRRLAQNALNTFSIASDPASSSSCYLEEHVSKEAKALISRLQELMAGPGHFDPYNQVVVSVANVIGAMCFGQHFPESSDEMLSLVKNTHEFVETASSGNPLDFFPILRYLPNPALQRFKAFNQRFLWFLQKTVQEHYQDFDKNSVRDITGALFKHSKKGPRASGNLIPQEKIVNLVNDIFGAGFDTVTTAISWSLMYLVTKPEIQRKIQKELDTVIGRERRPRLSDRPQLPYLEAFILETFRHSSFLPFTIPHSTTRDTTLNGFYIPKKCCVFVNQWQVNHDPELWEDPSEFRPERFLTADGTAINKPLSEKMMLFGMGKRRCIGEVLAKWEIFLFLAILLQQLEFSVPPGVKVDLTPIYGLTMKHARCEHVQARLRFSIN
Chain of Bromodomain-containing protein 3 (Q15059 whole entry, the tested form may be a part): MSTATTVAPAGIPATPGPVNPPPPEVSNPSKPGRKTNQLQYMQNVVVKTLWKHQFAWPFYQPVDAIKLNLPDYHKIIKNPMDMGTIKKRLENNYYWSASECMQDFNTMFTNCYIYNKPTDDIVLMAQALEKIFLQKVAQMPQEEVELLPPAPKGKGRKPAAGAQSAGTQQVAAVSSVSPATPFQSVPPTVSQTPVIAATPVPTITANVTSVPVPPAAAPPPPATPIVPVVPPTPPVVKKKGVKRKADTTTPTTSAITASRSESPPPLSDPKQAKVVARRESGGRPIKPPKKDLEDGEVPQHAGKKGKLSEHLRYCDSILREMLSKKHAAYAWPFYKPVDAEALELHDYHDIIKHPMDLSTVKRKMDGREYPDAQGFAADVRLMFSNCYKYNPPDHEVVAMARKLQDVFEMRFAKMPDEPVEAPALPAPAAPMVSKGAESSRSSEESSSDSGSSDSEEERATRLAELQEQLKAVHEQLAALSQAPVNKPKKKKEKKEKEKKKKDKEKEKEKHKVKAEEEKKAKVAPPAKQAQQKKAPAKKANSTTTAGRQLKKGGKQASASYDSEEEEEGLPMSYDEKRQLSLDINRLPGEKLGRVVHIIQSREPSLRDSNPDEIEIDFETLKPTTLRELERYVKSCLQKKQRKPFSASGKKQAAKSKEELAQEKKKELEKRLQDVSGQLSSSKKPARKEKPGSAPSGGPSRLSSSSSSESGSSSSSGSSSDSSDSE

For orientation: IC50 means the concentration at which inhibition is half-maximal. In general, solubility refers to the dissolved amount per volume that the medium holds. In the case of `CC(=O)N1c2ccc(-c3ccc(CN4CCCCC4)cc3)cc2[C@H](Nc2ccccc2)C[C@@H]1C`, the IC50 against Cytochrome P450 1A2 is more than 33 µM; in series [3], 316 nM; on Cytochrome P450 2C9, 14 µM; in the series on PBMC, 3.16 nM; at Cytochrome P450 3A4 [4], 10 µM; in [5] it was 398 nM. Moreover, the IC50 in the series on Blood is 63.1 nM; on Cytochrome P450 2C19, 20 µM; at Cytochrome P450 2D6, 8 µM; on Cytochrome P450 3A4 [9], 2000 nM; in series [10], 501 nM. The same compound yielded a solubility in series [1] of 125 µg/mL (≈ 276 µM). Moreover, the CLH in [2] was determined as 6 mL/min/g; in the series on Hepatocyte [6], 1.8 mL/min/g; in series [7], 0.9 mL/min/g; in the series on Hepatocyte [8] it was 0.8 mL/min/g. This compound also yielded a pEC170 in the series with HepG2 of 8.
